Several values for one entry are separate records, joined by “and”; a condition that tells them apart may be missing. Identical values can stand only once.
Settings: horizontal capillary tube

O [water]
Settings	surface tension liquid-gas
249.9 K, Metastable liquid	78.88 mN/m and 78.87 mN/m
249.91 K, Metastable liquid	78.91 mN/m
250.79 K, Metastable liquid	78.85 mN/m
250.8 K, Metastable liquid	78.72 mN/m
250.81 K, Metastable liquid	78.72 mN/m
250.82 K, Metastable liquid	78.72 mN/m and 78.77 mN/m and 78.69 mN/m
251.37 K, Metastable liquid	78.69 mN/m and 78.66 mN/m
251.39 K, Metastable liquid	78.68 mN/m
251.91 K, Metastable liquid	78.65 mN/m
251.92 K, Metastable liquid	78.65 mN/m
252.81 K, Metastable liquid	78.39 mN/m
252.82 K, Metastable liquid	78.47 mN/m
252.86 K, Metastable liquid	78.51 mN/m and 78.48 mN/m and 78.47 mN/m
252.88 K, Metastable liquid	78.38 mN/m and 78.4 mN/m and 78.41 mN/m
253.36 K, Metastable liquid	78.37 mN/m and 78.4 mN/m
253.79 K, Metastable liquid	78.34 mN/m
253.81 K, Metastable liquid	78.27 mN/m
254.9 K, Metastable liquid	78.3 mN/m
254.91 K, Metastable liquid	78.28 mN/m
255.29 K, Metastable liquid	78.03 mN/m
255.32 K, Metastable liquid	78.13 mN/m
255.33 K, Metastable liquid	78.15 mN/m
255.34 K, Metastable liquid	78.07 mN/m [middle of 4 runs]
255.84 K, Metastable liquid	78.05 mN/m and 78.06 mN/m
255.85 K, Metastable liquid	78.07 mN/m
256.33 K, Metastable liquid	77.91 mN/m
256.34 K, Metastable liquid	77.97 mN/m
256.87 K, Metastable liquid	77.86 mN/m and 77.87 mN/m
257.83 K, Metastable liquid	77.72 mN/m
257.84 K, Metastable liquid	77.75 mN/m
257.87 K, Metastable liquid	77.94 mN/m
257.88 K, Metastable liquid	77.92 mN/m
258.8 K, Metastable liquid	77.63 mN/m
258.81 K, Metastable liquid	77.61 mN/m
259.3 K, Metastable liquid	77.59 mN/m and 77.6 mN/m
259.8 K, Metastable liquid	77.54 mN/m and 77.5 mN/m
260.83 K, Metastable liquid	77.35 mN/m
260.84 K, Metastable liquid	77.36 mN/m
261.8 K, Metastable liquid	77.24 mN/m
261.81 K, Metastable liquid	77.2 mN/m
262.27 K, Metastable liquid	77.23 mN/m
262.28 K, Metastable liquid	77.21 mN/m
262.82 K, Metastable liquid	77.04 mN/m and 77.06 mN/m
262.83 K, Metastable liquid	77.07 mN/m
263.26 K, Metastable liquid	77 mN/m
263.27 K, Metastable liquid	77.01 mN/m
263.76 K, Metastable liquid	76.93 mN/m
263.77 K, Metastable liquid	76.91 mN/m and 76.87 mN/m
265.74 K, Metastable liquid	76.71 mN/m
265.75 K, Metastable liquid	76.75 mN/m
265.76 K, Metastable liquid	76.61 mN/m and 76.68 mN/m and 76.64 mN/m
265.77 K, Metastable liquid	76.6 mN/m
265.78 K, Metastable liquid	76.61 mN/m
266.23 K, Metastable liquid	76.6 mN/m and 76.58 mN/m
266.74 K, Metastable liquid	76.55 mN/m and 76.54 mN/m
268.21 K, Metastable liquid	76.34 mN/m and 76.3 mN/m
268.7 K, Metastable liquid	76.22 mN/m
269.18 K, Metastable liquid	76.23 mN/m
269.19 K, Metastable liquid	76.24 mN/m
269.36 K, Metastable liquid	76.19 mN/m
269.69 K, Metastable liquid	76.1 mN/m
270.17 K, Metastable liquid	76.05 mN/m
270.65 K, Metastable liquid	76.02 mN/m
270.67 K, Metastable liquid	76.02 mN/m
272.68 K, Metastable liquid	75.72 mN/m
272.69 K, Metastable liquid	75.75 mN/m
273.56 K, Metastable liquid	75.62 mN/m
273.61 K, Metastable liquid	75.56 mN/m
273.64 K, Metastable liquid	75.58 mN/m
273.69 K, Metastable liquid	75.61 mN/m and 75.64 mN/m
275.62 K, Liquid	75.24 mN/m
275.63 K, Liquid	75.28 mN/m and 75.24 mN/m
276.61 K, Liquid	75.19 mN/m
276.63 K, Liquid	75.19 mN/m and 75.16 mN/m
278.09 K, Liquid	74.96 mN/m
278.11 K, Liquid	74.98 mN/m
279.56 K, Liquid	74.68 mN/m
279.58 K, Liquid	74.74 mN/m
280.58 K, Liquid	74.59 mN/m
280.59 K, Liquid	74.56 mN/m and 74.58 mN/m
281.55 K, Liquid	74.41 mN/m
282.06 K, Liquid	74.39 mN/m and 74.37 mN/m
283.5 K, Liquid	74.17 mN/m
283.59 K, Liquid	74.17 mN/m
283.6 K, Liquid	74.15 mN/m
283.67 K, Liquid	74.15 mN/m
284.61 K, Liquid	74.14 mN/m
284.62 K, Liquid	74.11 mN/m
292 K, Liquid	72.91 mN/m and 72.88 mN/m
293.63 K, Liquid	72.7 mN/m and 72.67 mN/m
293.66 K, Liquid	72.67 mN/m and 72.7 mN/m
295.63 K, Liquid	72.36 mN/m
295.65 K, Liquid	72.33 mN/m
